Laboratory results reported in patent publication US20260216199A1, “RAF INHIBITOR AND KRAS G12C INHIBITOR COMBINATION THERAPY” (Erasca, Inc., priority 2023, published 2026).

What was measured:
[1] = system: cell lines that contain a variety of mutations that activate MAPK signaling; assay: Cell-based anti-proliferative assays; details: cell lines with mutations that activate MAPK signaling
[2] = target: CRAF (Homo sapiens, UniProt P04049); assay: CRAF inhibition; type: biochemical
[3] = system: NSCLC-derived Calu-6 (KRAS Q61K); assay: In vivo KRAS-mutant tumor model Calu-6; details: Calu-6 (KRAS Q61K) model, well-tolerated doses
[4] = target: BRAF (Homo sapiens, UniProt P15056); assay: BRAF inhibition; type: biochemical
[5] = system: NCI-H358 (KRAS G12C); assay: In vivo KRAS-mutant tumor model NCI-H358; details: well-tolerated doses

Sequence of CRAF (P04049 whole entry): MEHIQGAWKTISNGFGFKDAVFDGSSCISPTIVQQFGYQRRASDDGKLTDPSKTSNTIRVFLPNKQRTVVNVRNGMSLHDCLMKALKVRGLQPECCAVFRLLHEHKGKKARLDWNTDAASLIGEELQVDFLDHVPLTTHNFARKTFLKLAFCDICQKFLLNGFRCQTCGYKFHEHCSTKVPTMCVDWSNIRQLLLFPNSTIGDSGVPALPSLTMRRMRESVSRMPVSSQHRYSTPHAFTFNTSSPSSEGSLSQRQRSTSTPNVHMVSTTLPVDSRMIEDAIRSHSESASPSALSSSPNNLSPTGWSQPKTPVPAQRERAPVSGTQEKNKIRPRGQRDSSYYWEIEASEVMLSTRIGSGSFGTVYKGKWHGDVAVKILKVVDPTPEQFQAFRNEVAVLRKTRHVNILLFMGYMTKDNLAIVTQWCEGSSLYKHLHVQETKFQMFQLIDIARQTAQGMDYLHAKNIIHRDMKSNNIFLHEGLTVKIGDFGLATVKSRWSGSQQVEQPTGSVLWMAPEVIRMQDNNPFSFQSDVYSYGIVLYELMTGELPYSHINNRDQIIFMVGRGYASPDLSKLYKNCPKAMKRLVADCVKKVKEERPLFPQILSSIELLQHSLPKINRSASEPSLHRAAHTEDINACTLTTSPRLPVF
Sequence of BRAF (P15056 whole entry): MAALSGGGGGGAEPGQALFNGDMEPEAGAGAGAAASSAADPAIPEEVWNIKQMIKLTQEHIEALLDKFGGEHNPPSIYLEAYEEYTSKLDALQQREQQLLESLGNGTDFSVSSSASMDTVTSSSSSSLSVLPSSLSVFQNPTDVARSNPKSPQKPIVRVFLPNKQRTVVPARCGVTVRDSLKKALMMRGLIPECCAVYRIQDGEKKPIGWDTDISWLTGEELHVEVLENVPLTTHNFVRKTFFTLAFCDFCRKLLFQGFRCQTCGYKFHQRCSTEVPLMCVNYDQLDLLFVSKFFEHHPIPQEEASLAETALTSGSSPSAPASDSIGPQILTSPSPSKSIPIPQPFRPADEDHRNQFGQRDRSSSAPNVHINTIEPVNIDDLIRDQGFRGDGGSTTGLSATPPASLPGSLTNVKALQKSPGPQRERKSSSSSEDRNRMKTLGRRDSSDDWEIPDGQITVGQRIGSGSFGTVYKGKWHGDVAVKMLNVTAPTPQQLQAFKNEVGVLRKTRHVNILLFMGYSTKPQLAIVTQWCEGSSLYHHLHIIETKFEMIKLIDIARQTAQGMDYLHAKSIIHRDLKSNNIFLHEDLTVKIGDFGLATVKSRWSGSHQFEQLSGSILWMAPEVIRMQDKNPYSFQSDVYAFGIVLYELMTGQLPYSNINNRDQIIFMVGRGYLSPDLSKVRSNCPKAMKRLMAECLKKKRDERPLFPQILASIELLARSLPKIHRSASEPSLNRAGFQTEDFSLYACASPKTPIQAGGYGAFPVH

`Cc1ccc(NC(=O)c2ccnc(C(F)(F)F)c2)cc1-c1cc(OCCO)nc(N2CCOCC2)c1` [Compound of formula (I)] was tested, and the “anti-proliferative activity in cell lines” value [1] was “anti-proliferative activity”, the “inhibition of CRAF” value [2] was “potent inhibitors” and the “tumor response in vivo” value [3] was “tumor regression”. The “inhibition of BRAF” value [4] was “potent inhibitors” and the “tumor response in vivo” value [5] was “tumor regression”.
